Among the data in PubChem BioAssay (NCI) are TGI values, retold here.

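Following 48 hours of exposure in 96-well plates, responses at five concentrations were used to interpolate endpoints linearly. TGI denotes the concentration required for complete inhibition of growth.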 A value given as a limit tells only on which side of the number the result lay.

Some test systems named below: NCI-H23 lung; UACC-62 melanoma; HOP-92 NSCLC; SN12C renal; HCT-116 colon; M14 melanoma; SNB-75 CNS; COLO 205 colon; 786-0 renal; HCT-15 colon; EKVX NSCLC; SK-MEL-5 melanoma; KM12 colon; M19-MEL melanoma; SF-295 CNS; UO-31 renal; RPMI-8226 leukemia; MCF7 breast; BT-549 breast; T-47D breast.
Holding throughout (assay): NCI-60 cell line screen, 48 h

For the compound `O=C(O)COc1ccc(C(=O)/C(SS/C(C(=O)c2ccc(OCC(=O)O)c(Cl)c2Cl)=C2\C=C(c3ccccc3Cl)SS2)=C2/C=C(c3ccccc3Cl)SS2)c(Cl)c1Cl`, the TGI in the assay with NCI-H23 lung was 60.2 µM; with UACC-62 melanoma, 69.5 µM; in the assay on HOP-92 NSCLC, 24.3 µM; in the assay on SN12C renal it was greater than 100 µM; in the assay on HCT-116 colon, greater than 58.7 µM; in the assay with M14 melanoma it was greater than 68 µM. For the same compound, the TGI with SNB-75 CNS is greater than 100 µM; in the assay with COLO 205 colon, greater than 77.1 µM; in the assay on 786-0 renal, 36.7 µM; with HCT-15 colon, greater than 54.6 µM; in the assay on EKVX NSCLC, greater than 89.3 µM; in the assay on SK-MEL-5 melanoma, 49 µM. In addition, the TGI in the assay on KM12 colon was greater than 71.4 µM; with M19-MEL melanoma, greater than 66.6 µM; in the assay on SF-295 CNS it was greater than 100 µM; with UO-31 renal it was 68.2 µM; in the assay on RPMI-8226 leukemia it was 42.5 µM.
Turning to `COc1ccc(/C=C2\CCC(Cc3ccccc3)(CN(C)C)C2=O)cc1` (stereo unspecified), the TGI in the assay with NCI-H23 lung is greater than 100 µM; with MCF7 breast it was greater than 100 µM; in the assay with BT-549 breast, greater than 100 µM; in the assay on T-47D breast, greater than 100 µM; in the assay with UACC-62 melanoma, greater than 76.9 µM; with HOP-92 NSCLC, greater than 100 µM. Further, the TGI was greater than 100 µM with SN12C renal; greater than 100 µM with HCT-116 colon; 66.2 µM with M14 melanoma; greater than 100 µM in the assay on SNB-75 CNS; greater than 74.8 µM in the assay with COLO 205 colon; greater than 100 µM in the assay on 786-0 renal. The TGI was greater than 70.7 µM in the assay on HCT-15 colon; greater than 100 µM in the assay on EKVX NSCLC; 44.8 µM in the assay on SK-MEL-5 melanoma; greater than 100 µM with KM12 colon; 70.7 µM in the assay with M19-MEL melanoma; greater than 100 µM in the assay on SF-295 CNS. Also, the figures for the TGI in the assay with UO-31 renal and with RPMI-8226 leukemia were greater than 100 µM and 62.9 µM, respectively.
Regarding `COC(=O)N/N=C(/c1nc2ccc([N+](=O)[O-])cc2[nH]c1=O)C(O)c1ccc(OC)c(OC)c1` (stereo unspecified), the TGI with NCI-H23 lung, in the assay on MCF7 breast, with BT-549 breast, in the assay on T-47D breast, in the assay with UACC-62 melanoma and in the assay on HOP-92 NSCLC was greater than 100 µM in each case. Moreover, the TGI with SN12C renal is greater than 100 µM; with HCT-116 colon it was greater than 100 µM; in the assay on M14 melanoma, greater than 100 µM; in the assay with SNB-75 CNS, greater than 100 µM; in the assay on COLO 205 colon, greater than 76.9 µM; in the assay on 786-0 renal, greater than 100 µM. In addition, the TGI in the assay on HCT-15 colon was greater than 78.4 µM; with EKVX NSCLC it was greater than 100 µM; in the assay with SK-MEL-5 melanoma, greater than 78.7 µM; in the assay on KM12 colon, greater than 100 µM; in the assay with M19-MEL melanoma, greater than 100 µM; with SF-295 CNS, greater than 100 µM. Also, the figures for the TGI with UO-31 renal and in the assay on RPMI-8226 leukemia were greater than 100 µM and greater than 74.5 µM, respectively.
Consider `Nc1nc2ncn(CC(O)COC(=O)c3ccccc3)c2c(=O)[nH]1` (stereo unspecified), for which the TGI in the assay on NCI-H23 lung, in the assay with UACC-62 melanoma, with HOP-92 NSCLC, in the assay on SN12C renal, in the assay with HCT-116 colon and in the assay on M14 melanoma was greater than 100 µM each time. The TGI in the assay with SNB-75 CNS, in the assay on COLO 205 colon, with 786-0 renal, in the assay with HCT-15 colon, in the assay with EKVX NSCLC and in the assay with SK-MEL-5 melanoma was greater than 100 µM in each case. The TGI with KM12 colon, with M19-MEL melanoma, in the assay on SF-295 CNS, in the assay with UO-31 renal and in the assay on RPMI-8226 leukemia was greater than 100 µM throughout.
Consider `CC(=O)NC(CCCNC(=O)OCc1ccccc1)C(=O)O` (stereo unspecified), for which the TGI in the assay with NCI-H23 lung, with UACC-62 melanoma, with HOP-92 NSCLC, in the assay on SN12C renal, in the assay with HCT-116 colon and in the assay with M14 melanoma was greater than 100 µM in each case. In addition, the TGI with SNB-75 CNS, in the assay on COLO 205 colon, in the assay on 786-0 renal, in the assay with HCT-15 colon, in the assay on EKVX NSCLC and in the assay on SK-MEL-5 melanoma was greater than 100 µM in each case. Also, the TGI in the assay on KM12 colon, in the assay with M19-MEL melanoma, in the assay on SF-295 CNS, in the assay with UO-31 renal and with RPMI-8226 leukemia was greater than 100 µM each time.
